# Experimental data from US20160367623A1, “AGONISTS OF GUANYLATE CYCLASE USEFUL FOR THE TREATMENT OF GASTROINTESTINAL DISORDERS, INFLAMMATION, CANCER AND OTHER DISORDERS” (priority 2015, published 2016).
# Bridge positions count the residues as written; N and C are the ends. Ends that are not written are not given here.
# System: patients with chronic idiopathic constipation (CIC)
# Test: Second phase 3 CIC trial: change from baseline in CSBMs/week
# Assay type: in vivo, human
# Settings: MRA
# [1] = Week 8, 6 mg, ITT Population-Excluding Duplicate Patients
# [2] = Week 9, 3 mg, ITT Population-Excluding Duplicate Patients
# [3] = Week 9, 6 mg, ITT Population-Excluding Duplicate Patients
# [4] = Week 10, 3 mg, ITT Population-Excluding Duplicate Patients
# [5] = Week 10, 6 mg, ITT Population-Excluding Duplicate Patients
# [6] = Week 11, 3 mg, ITT Population-Excluding Duplicate Patients
# [7] = Week 11, 6 mg, ITT Population-Excluding Duplicate Patients
# [8] = Week 12, 3 mg, ITT Population-Excluding Duplicate Patients
# [9] = Week 12, 6 mg, ITT Population-Excluding Duplicate Patients
# [10] = overall average estimate across the 12-week treatment period, 3 mg, ITT Population
# [11] = overall average estimate across the 12-week treatment period, 3 mg, ITT Population-Excluding Duplicate Patients
# [12] = overall average estimate across the 12-week treatment period, 6 mg, ITT Population
# [13] = overall average estimate across the 12-week treatment period, 6 mg, ITT Population-Excluding Duplicate Patients
substance,measurement,setting,value
"Asn^1-Asp^2-Glu^3-Cys^4-Glu^5-Leu^6-Cys^7-Val^8-Asn^9-Val^10-Ala^11-Cys^12-Thr^13-Gly^14-Cys^15-Leu^16 (NDECELCVNVACTGCL; disulfide 4-12, 7-15) [Plecanatide, uroguanylin analogue, guanylate cyclase-C agonist; (C4:C12, C7:C15) bicycle peptide]","Change from Baseline in CSBMs, Mean (SD)","Week 8, 6 mg, ITT Population",2.36 (3.243) CSBMs/week
same,"Change from Baseline in CSBMs, Difference from Placebo",[1],0.85 CSBMs/week
same,"Change from Baseline in CSBMs, LS Mean (SE)",[1],2.35 (0.155) CSBMs/week
same,"Change from Baseline in CSBMs, Mean (SD)",[1],2.37 (3.250) CSBMs/week
same,"Change from Baseline in CSBMs, Mean (SD)","Week 8, Active Combined, ITT Population-Excluding Duplicate Patients",2.52 (3.510) CSBMs/week
same,"Change from Baseline in CSBMs, Mean (SD)","Week 8, Active Combined, ITT Population",2.51 (3.498) CSBMs/week
same,"Change from Baseline in CSBMs, Difference from Placebo","Week 9, 3 mg, ITT Population",0.94 CSBMs/week
same,"Change from Baseline in CSBMs, LS Mean (SE)","Week 9, 3 mg, ITT Population",2.49 (0.156) CSBMs/week
same,"Change from Baseline in CSBMs, Mean (SD)","Week 9, 3 mg, ITT Population",2.59 (3.459) CSBMs/week
same,"Change from Baseline in CSBMs, Difference from Placebo",[2],0.95 CSBMs/week
same,"Change from Baseline in CSBMs, LS Mean (SE)",[2],2.53 (0.159) CSBMs/week
same,"Change from Baseline in CSBMs, Mean (SD)",[2],2.62 (3.479) CSBMs/week
same,"Change from Baseline in CSBMs, Difference from Placebo","Week 9, 6 mg, ITT Population",0.81 CSBMs/week
same,"Change from Baseline in CSBMs, LS Mean (SE)","Week 9, 6 mg, ITT Population",2.37 (0.154) CSBMs/week
same,"Change from Baseline in CSBMs, Mean (SD)","Week 9, 6 mg, ITT Population",2.38 (3.176) CSBMs/week
same,"Change from Baseline in CSBMs, Difference from Placebo",[3],0.81 CSBMs/week
same,"Change from Baseline in CSBMs, LS Mean (SE)",[3],2.39 (0.156) CSBMs/week
same,"Change from Baseline in CSBMs, Mean (SD)",[3],2.39 (3.184) CSBMs/week
same,"Change from Baseline in CSBMs, Mean (SD)","Week 9, Active Combined, ITT Population-Excluding Duplicate Patients",2.50 (3.329) CSBMs/week
same,"Change from Baseline in CSBMs, Mean (SD)","Week 9, Active Combined, ITT Population",2.48 (3.316) CSBMs/week
same,"Change from Baseline in CSBMs, Difference from Placebo","Week 10, 3 mg, ITT Population",0.85 CSBMs/week
same,"Change from Baseline in CSBMs, LS Mean (SE)","Week 10, 3 mg, ITT Population",2.49 (0.156) CSBMs/week
same,"Change from Baseline in CSBMs, Mean (SD)","Week 10, 3 mg, ITT Population",2.63 (3.617) CSBMs/week
same,"Change from Baseline in CSBMs, Difference from Placebo",[4],0.87 CSBMs/week
same,"Change from Baseline in CSBMs, LS Mean (SE)",[4],2.52 (0.159) CSBMs/week
same,"Change from Baseline in CSBMs, Mean (SD)",[4],2.65 (3.637) CSBMs/week
same,"Change from Baseline in CSBMs, Difference from Placebo","Week 10, 6 mg, ITT Population",0.86 CSBMs/week
same,"Change from Baseline in CSBMs, LS Mean (SE)","Week 10, 6 mg, ITT Population",2.50 (0.154) CSBMs/week
same,"Change from Baseline in CSBMs, Mean (SD)","Week 10, 6 mg, ITT Population",2.51 (3.288) CSBMs/week
same,"Change from Baseline in CSBMs, Difference from Placebo",[5],0.87 CSBMs/week
same,"Change from Baseline in CSBMs, LS Mean (SE)",[5],2.52 (0.156) CSBMs/week
same,"Change from Baseline in CSBMs, Mean (SD)",[5],2.51 (3.288) CSBMs/week
same,"Change from Baseline in CSBMs, Mean (SD)","Week 10, Active Combined, ITT Population-Excluding Duplicate Patients",2.58 (3.458) CSBMs/week
same,"Change from Baseline in CSBMs, Mean (SD)","Week 10, Active Combined, ITT Population",2.57 (3.449) CSBMs/week
same,"Change from Baseline in CSBMs, Difference from Placebo","Week 11, 3 mg, ITT Population",0.96 CSBMs/week
same,"Change from Baseline in CSBMs, LS Mean (SE)","Week 11, 3 mg, ITT Population",2.56 (0.157) CSBMs/week
same,"Change from Baseline in CSBMs, Mean (SD)","Week 11, 3 mg, ITT Population",2.71 (3.710) CSBMs/week
same,"Change from Baseline in CSBMs, Difference from Placebo",[6],0.99 CSBMs/week
same,"Change from Baseline in CSBMs, LS Mean (SE)",[6],2.61 (0.159) CSBMs/week
same,"Change from Baseline in CSBMs, Mean (SD)",[6],2.75 (3.728) CSBMs/week
same,"Change from Baseline in CSBMs, Difference from Placebo","Week 11, 6 mg, ITT Population",0.80 CSBMs/week
same,"Change from Baseline in CSBMs, LS Mean (SE)","Week 11, 6 mg, ITT Population",2.40 (0.155) CSBMs/week
same,"Change from Baseline in CSBMs, Mean (SD)","Week 11, 6 mg, ITT Population",2.44 (3.276) CSBMs/week
same,"Change from Baseline in CSBMs, Difference from Placebo",[7],0.79 CSBMs/week
same,"Change from Baseline in CSBMs, LS Mean (SE)",[7],2.41 (0.156) CSBMs/week
same,"Change from Baseline in CSBMs, Mean (SD)",[7],2.43 (3.266) CSBMs/week
same,"Change from Baseline in CSBMs, Mean (SD)","Week 11, Active Combined, ITT Population-Excluding Duplicate Patients",2.58 (3.498) CSBMs/week
same,"Change from Baseline in CSBMs, Mean (SD)","Week 11, Active Combined, ITT Population",2.57 (3.493) CSBMs/week
same,"Change from Baseline in CSBMs, Difference from Placebo","Week 12, 3 mg, ITT Population",0.94 CSBMs/week
same,"Change from Baseline in CSBMs, LS Mean (SE)","Week 12, 3 mg, ITT Population",2.60 (0.157) CSBMs/week
same,"Change from Baseline in CSBMs, Mean (SD)","Week 12, 3 mg, ITT Population",2.76 (3.785) CSBMs/week
same,"Change from Baseline in CSBMs, Difference from Placebo",[8],0.97 CSBMs/week
same,"Change from Baseline in CSBMs, LS Mean (SE)",[8],2.64 (0.159) CSBMs/week
same,"Change from Baseline in CSBMs, Mean (SD)",[8],2.78 (3.803) CSBMs/week
same,"Change from Baseline in CSBMs, Difference from Placebo","Week 12, 6 mg, ITT Population",0.86 CSBMs/week
same,"Change from Baseline in CSBMs, LS Mean (SE)","Week 12, 6 mg, ITT Population",2.51 (0.155) CSBMs/week
same,"Change from Baseline in CSBMs, Mean (SD)","Week 12, 6 mg, ITT Population",2.57 (3.409) CSBMs/week
same,"Change from Baseline in CSBMs, Difference from Placebo",[9],0.84 CSBMs/week
same,"Change from Baseline in CSBMs, LS Mean (SE)",[9],2.51 (0.157) CSBMs/week
same,"Change from Baseline in CSBMs, Mean (SD)",[9],2.56 (3.366) CSBMs/week
same,"Change from Baseline in CSBMs, Mean (SD)","Week 12, Active Combined, ITT Population-Excluding Duplicate Patients",2.67 (3.585) CSBMs/week
same,"Change from Baseline in CSBMs, Mean (SD)","Week 12, Active Combined, ITT Population",2.66 (3.596) CSBMs/week
same,"Change from Baseline in CSBMs, Difference from Placebo",[10],0.90 CSBMs/week
same,"Change from Baseline in CSBMs, LS Mean (SE)",[10],2.27 (0.135) CSBMs/week
same,"Change from Baseline in CSBMs, Difference from Placebo",[11],0.91 CSBMs/week
same,"Change from Baseline in CSBMs, LS Mean (SE)",[11],2.30 (0.137) CSBMs/week
same,"Change from Baseline in CSBMs, Difference from Placebo",[12],0.79 CSBMs/week
same,"Change from Baseline in CSBMs, LS Mean (SE)",[12],2.16 (0.133) CSBMs/week
same,"Change from Baseline in CSBMs, Difference from Placebo",[13],0.79 CSBMs/week
same,"Change from Baseline in CSBMs, LS Mean (SE)",[13],2.18 (0.135) CSBMs/week
